PMC6409716, “Centipede KCNQ Inhibitor SsTx Also Targets KV1.3” (Toxins, 2019)
Like-named read-outs stand apart in the source and are kept apart here. Bridges are numbered along the chain shown (N, C = ends). Where no end group is shown, it is not given here.

Key:
KV1.3 = biological target: T1, KV1.3 (Homo sapiens, UniProt P22001); experiment: Whole-cell patch-clamp, KV1.3; type: cell-based; settings: whole-cell recording, HEK293T and CHO cells transfected, 1000-ms depolarizing pulse of 10 mV from −80 mV, pH 7.3, room temperature, Hill fit
T1 construct: expressed in transfected cells; host or cells: HEK293T and CHO cells
Method: (§1) HEK293T and CHO cells were cultured as described in our previous work. The plasmid DNA (5μL, 1 μg/μL) of KV1.3 and KV7.4 channel was mixed with lipofectamine at a ratio of 1:1 in 200 μL Opti-MEM for 15–20 min, and the mixture was transferred to the cells plated in 20 mm cell culture dish for 12 h. After 24 h transfections, electrophysiological experiments were carried out at room temperature.
(§2) The cells expressing KV1.3 and KV7.4 were digested and plated on glass coverslips before current recording. The HEKA EPC10 amplifier (HEKA Elektronik, Ludwigshafen, Germany) was used to record currents in whole cells under the control of PATCHMASTER software (HEKA Elektronik, Ludwigshafen, Germany). A thin-wall borosilicate glass (A-M Systems) was used to pull patch pipettes and then the pipettes were fire-polished to 3–4 megohm. For whole-cell recordings, the capacity current was minimized by amplifier circuitry, and the series resistance was compensated by 30% to 65%. For KV1.3 and KV7.4 channel, intracellular solution contained 140 mM KCl, 10 mM EGTA, 2 mM MgCl2, 1 mM CaCl2, 10 mM HEPES (pH 7.3, adjusted with KOH), and extracellular solution contained 150 mM NaCl, 0.5 mM CaCl2, 5 mM KCl, 1.2 mM MgCl2, 10 mM HEPES (pH 7.3, adjusted with NaOH), and the current traces were tested by a 1000-ms depolarizing pulse of 10 mV from a holding voltage of −80 mV. The Hill logistic equation shown below was used to fit the Dose–response curves:y = 1 − (1 − fmax)/[1 + ([Tx]/IC50) n](1) where n is an empirical Hill coefficient, and fmax is the fraction of current resistant to inhibition at high toxin (Tx) concentration.

KV7.4 = biological target: T2, KV7.4 (Homo sapiens, UniProt P56696); experiment: Whole-cell patch-clamp, KV7.4; type: cell-based; settings: whole-cell recording, HEK293T and CHO cells transfected; 1000-ms depolarizing pulse of 10 mV from −80 mV; pH 7.3; room temperature; Hill fit; n = 5 cells
T2 construct: expressed in transfected cells; host or cells: HEK293T and CHO cells
Method: as §1
as §2, with “The Hill logistic equation shown below was used to fit the Dose–response curves:y = 1 − (1 − fmax)/[1 + ([Tx]/IC50) n](1) where n is an empirical Hill coefficient, and fmax is the fraction of current resistant to inhibition at high toxin (Tx) concentration.” left out

[1] = ref [8]; cited from earlier work
Text: With over 3000 species, centipedes, arthropods of the class Chilopoda are widely distributed in both tropical and subtropical regions. Their first pair of legs have been modified into strong mandibles and venomous fangs called forcipules that play a critical role in defense and predation. Centipede stings occur frequently in areas, such as Hawaii, Brazil, Australia, Taiwan, and Japan, evoking an issue of social health care. Centipede toxins are composite mixtures, which are responsible for both local and systemic reactions. Recently, we have identified and characterized several pep ...

[2] = n = 5 cells, read-out: IC50 on KV1.3 (mutants)

T1 sequence (P22001 whole entry): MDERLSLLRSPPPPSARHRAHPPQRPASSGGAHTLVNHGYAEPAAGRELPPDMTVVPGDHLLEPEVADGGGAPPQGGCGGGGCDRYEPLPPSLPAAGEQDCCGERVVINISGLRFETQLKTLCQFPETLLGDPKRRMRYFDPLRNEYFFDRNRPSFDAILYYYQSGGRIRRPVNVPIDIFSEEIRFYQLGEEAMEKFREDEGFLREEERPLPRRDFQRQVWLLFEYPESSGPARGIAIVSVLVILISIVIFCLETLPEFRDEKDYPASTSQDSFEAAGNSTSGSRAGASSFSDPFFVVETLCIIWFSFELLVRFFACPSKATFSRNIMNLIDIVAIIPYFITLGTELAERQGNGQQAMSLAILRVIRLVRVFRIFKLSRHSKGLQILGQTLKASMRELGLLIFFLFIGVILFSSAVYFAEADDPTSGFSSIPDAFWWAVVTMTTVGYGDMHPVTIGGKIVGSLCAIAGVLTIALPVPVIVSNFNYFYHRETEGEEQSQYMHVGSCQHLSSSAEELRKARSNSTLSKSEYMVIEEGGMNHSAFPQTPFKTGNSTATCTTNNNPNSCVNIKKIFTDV
T2 sequence (P56696 whole entry): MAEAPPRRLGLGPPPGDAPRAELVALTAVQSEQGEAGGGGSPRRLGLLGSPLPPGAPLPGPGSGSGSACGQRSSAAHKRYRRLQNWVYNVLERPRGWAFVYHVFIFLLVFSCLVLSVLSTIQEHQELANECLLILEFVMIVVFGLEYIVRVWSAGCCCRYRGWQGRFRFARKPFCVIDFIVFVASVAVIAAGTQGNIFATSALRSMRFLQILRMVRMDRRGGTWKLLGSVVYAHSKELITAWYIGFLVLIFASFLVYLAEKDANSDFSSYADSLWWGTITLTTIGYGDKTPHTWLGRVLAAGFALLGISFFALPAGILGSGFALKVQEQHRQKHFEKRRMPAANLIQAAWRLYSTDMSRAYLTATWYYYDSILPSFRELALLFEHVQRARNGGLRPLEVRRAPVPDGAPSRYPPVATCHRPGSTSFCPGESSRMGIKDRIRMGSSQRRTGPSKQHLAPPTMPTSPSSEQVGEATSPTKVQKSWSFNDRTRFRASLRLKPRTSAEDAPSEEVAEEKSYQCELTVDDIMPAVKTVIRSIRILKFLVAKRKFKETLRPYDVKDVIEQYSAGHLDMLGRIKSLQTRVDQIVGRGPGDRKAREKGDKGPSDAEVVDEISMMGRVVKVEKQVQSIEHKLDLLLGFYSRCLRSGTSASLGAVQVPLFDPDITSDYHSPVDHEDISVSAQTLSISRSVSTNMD

Sequence | IC50 (KV1.3; [2]) | IC50 (KV1.3; n = 10 cells, read-out: IC50 on KV1.3) | IC50 (KV7.4) | lethal toxicity [1]
EVIKKDTPYKARKFPYKSECLKACATSFTGGDESRIQEGKPGFFKCTCYFTTG (disulfide 20-46, 24-48) [SsTx_K11A] | 507 ± 0.61 µM | – | – | –
EVIKKDTPYKKAKFPYKSECLKACATSFTGGDESRIQEGKPGFFKCTCYFTTG (disulfide 20-46, 24-48) [SsTx_R12A] | 22.23 ± 0.22 µM | – | – | –
EVIKKDTPYKKRAFPYKSECLKACATSFTGGDESRIQEGKPGFFKCTCYFTTG (disulfide 20-46, 24-48) [SsTx_K13A] | 526.1 ± 0.48 µM | – | – | –
EVIKKDTPYKKRKFPYKSECLKACATSFTGGDESRIQEGKPGFFKCTCYFTTG (disulfide 20-46, 24-48) [SsTx, Ssm Spooky Toxin] | – | 5.26 µM | 2.8 ± 0.23 µM | potent lethal toxicity by causing severe vessels and respiratory disorders or seizures
